Test results published in patent US5506256A, “Proline derivatives possessing prolyl endopeptidase-inhibitory activity” (Yoshitomi Pharmaceutical Industries, Ltd., priority 1990, dated 1996).
pIC50: −log10 of the molar value.

Columns and labels:
leucine aminopeptidase = assay: Determination of leucine aminopeptidase-inhibitory activity; format: biochemical, swine; parameters: unit not given here
Experimental: (§1) The methods for the measurement of inhibitory activities against various proteases and the method for calculating the inhibition rate are as follows.
Determination of leucine aminopeptidase-inhibitory activity
Similarly, by following the procedure mentioned above, but employing a 50 mM Tris-HCl buffer (pH 8.0) as a buffer for measurement, a […] solution of leucine aminopeptidase (derived from swine kidney, Sigma) in the same buffer as an enzyme solution and a 200 μM solution of 7-leucyl-4-methyl-coumarinamide (Peptide Institute, Inc.) in the same buffer as a substrate solution, each fluorescence (d1, d2 and d3) was determined, respectively.
(§2) Using the fluorescence x1, x2 and x3 measured in the abovementioned manner, the inhibitory rate against various proteases was calculated by the following formula where x stands for b, c, d, e or f: [formula]

trypsin = molecular target: T1, trypsin (Bos taurus, UniProt P00760); assay: Determination of trypsin-inhibitory activity; format: biochemical, bovine; conditions: read-out: inhibition rate, trypsin
T1 construct: purchased Sigma; host or cells: bovine pancreas
T1 sequence (P00760 24-246): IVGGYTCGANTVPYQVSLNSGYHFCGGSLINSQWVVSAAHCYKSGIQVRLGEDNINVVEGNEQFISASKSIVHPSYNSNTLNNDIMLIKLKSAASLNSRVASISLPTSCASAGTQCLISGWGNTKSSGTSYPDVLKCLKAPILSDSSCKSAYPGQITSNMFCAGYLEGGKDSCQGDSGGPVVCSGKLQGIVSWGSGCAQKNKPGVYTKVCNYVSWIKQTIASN
Experimental: as §1
Determination of trypsin-inhibitory activity
In the present invention, a 50 mM Tris-HCl buffer (pH 8.0) was employed as a buffer for measurement.
To a mixture of the above-mentioned buffer (850 μl), a solution of the compounds of the present invention in the same buffer (50 μl) and a 0.02 μM solution of trypsin (derived from bovine pancreas, Sigma) in the same buffer (50 μl) was added a 200 μM solution of 7-(prolyl-phenylaranyl-arginyl)-4-methylcoumarinamide (Peptide Institute, Inc.) in the same buffer (50 μl),and the mixture was incubated at 30° C. for 1 hour. The reaction mixture was immersed in ice (0° C.) to terminate the reaction, and the fluorescence (b1) was determined 1 hour later (excitation at 370 nm and emission at 440 nm). Concurrently, there were conducted the experiment wherein, in the system above, the trypsin solution was substituted for a buffer alone, and the experiment wherein the solution of the compounds of the present invention was substituted for a buffer above. Each fluorescence (b2 and b3) was determined respectively.
as §2

elastase = molecular target: T2, elastase (Sus scrofa, UniProt P00772); assay: Determination of elastase-inhibitory activity; format: biochemical, swine; conditions: read-out: inhibition rate, elastase
T2 construct: purchased Sigma; host or cells: swine pancreas
T2 sequence (P00772 27-266): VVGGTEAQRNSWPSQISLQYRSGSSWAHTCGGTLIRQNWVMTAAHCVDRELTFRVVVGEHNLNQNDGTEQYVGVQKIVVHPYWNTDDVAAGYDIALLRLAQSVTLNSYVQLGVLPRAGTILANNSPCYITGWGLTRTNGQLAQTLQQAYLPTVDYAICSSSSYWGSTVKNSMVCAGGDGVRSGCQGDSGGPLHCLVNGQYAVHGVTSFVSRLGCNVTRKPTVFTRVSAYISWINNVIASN
Experimental: as §1
Determination of elastase-inhibitory activity
Similarly, by following the procedure mentioned above, but employing a 1 mM Tris-HCl buffer (pH 8.5) as a buffer for measurement, a 0.2 μM solution of elastase (derived from swine pancreas, Sigma) in the same buffer as an enzyme solution and a 200 μM solution of 7-(N-succinyl-aranyl-prolyl-aranyl)-4-methylcoumarinamide (Peptide Institute, Inc.) in the same buffer as a substrate solution, each fluorescence (e1, e2 and e3) was determined, respectively.
as §2

chymotrypsin = molecular target: T3, chymotrypsin (Bos taurus, UniProt P00766); assay: Determination of chymotrypsin-inhibitory activity; format: biochemical, bovine; conditions: read-out: inhibition rate, chymotrypsin
T3 construct: purchased Sigma; host or cells: bovine pancreas
Experimental: as §1
Determination of chymotrypsin-inhibitory activity
Similarly, by following the procedure mentioned above, but employing a 50 mM Tris-HCl buffer (pH 8.0) as a buffer for measurement, a 0.2 μM solution of chymotrypsin (derived from bovine pancreas, Sigma) in the same buffer as an enzyme solution and a […] solution of 7-(N-succinyl-leucyl-leucyl-valyl-tyrosyl)-4-methylcoumarinamide (Peptide Institute, Inc.) in the same buffer as a substrate solution, each fluorescence (c1, c2 and c3) was determined, respectively.
as §2

cathepsin B = molecular target: T4, cathepsin B (Bos taurus, UniProt P07688); assay: Determination of cathepsin B-inhibitory activity; format: biochemical, bovine; conditions: read-out: inhibition rate, cathepsin B
T4 construct: purchased Sigma; host or cells: bovine spleen
Experimental: as §1
Determination of cathepsin B-inhibitory activity
Similarly, by following the procedure mentioned above, but employing a 100 mM sodium phosphate buffer (pH 6.0; containing 1.33 mM EDTA Na2) as a buffer for measurement, a 0.02 μM solution of cathepsin B (derived from bovine spleen, Sigma) in the same buffer as an enzyme solution and a 200 μM solution of 7-(N-benzyloxycarbonyl-phenylaranyl-arginyl)-4-methylcoumarinamide (Peptide Institute, Inc.) in the same buffer as a substrate solution, each fluorescence (f1, f2 and f3) was determined, respectively.
as §2

prolyl endopeptidase = molecular target: T5, prolyl endopeptidase (Rattus norvegicus, UniProt O70196); assay: Prolyl endopeptidase-inhibitory activity; format: biochemical; conditions: for inhibition at 0.1 µM / inhibition at 1 µM: read-out: inhibition rate, prolyl endopeptidase; for pIC50: prolyl endopeptidase extracted from rat brain, pH 7.0, 30° C., read-out: IC50
T5 construct: prolyl endopeptidase extracted from rat brain; from tissue; host or cells: rat brain
T5 sequence (O70196 whole entry): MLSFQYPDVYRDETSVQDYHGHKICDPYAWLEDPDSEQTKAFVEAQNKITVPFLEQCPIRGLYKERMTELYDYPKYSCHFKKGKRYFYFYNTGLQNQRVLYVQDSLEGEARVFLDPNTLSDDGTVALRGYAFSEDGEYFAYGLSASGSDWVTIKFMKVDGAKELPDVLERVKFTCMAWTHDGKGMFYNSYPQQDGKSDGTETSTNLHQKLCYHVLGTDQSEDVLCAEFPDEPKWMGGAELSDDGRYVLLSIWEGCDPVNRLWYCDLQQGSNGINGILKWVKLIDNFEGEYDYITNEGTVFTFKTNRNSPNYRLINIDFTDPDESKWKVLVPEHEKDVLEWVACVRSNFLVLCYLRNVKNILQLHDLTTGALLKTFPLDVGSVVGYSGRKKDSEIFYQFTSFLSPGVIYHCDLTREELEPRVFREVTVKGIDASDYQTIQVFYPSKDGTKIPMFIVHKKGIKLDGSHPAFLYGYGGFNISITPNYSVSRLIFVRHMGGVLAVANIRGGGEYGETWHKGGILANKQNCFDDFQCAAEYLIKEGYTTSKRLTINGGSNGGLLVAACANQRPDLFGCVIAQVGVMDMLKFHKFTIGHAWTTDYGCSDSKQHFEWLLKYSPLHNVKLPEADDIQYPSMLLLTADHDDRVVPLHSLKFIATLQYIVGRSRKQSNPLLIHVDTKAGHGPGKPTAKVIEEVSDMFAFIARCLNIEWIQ
Experimental: Prolyl endopeptidase-inhibitory activity
A mixture of a 0.1M potassium sodium phosphate buffer (pH 7.0) (2675 μl), a solution of the compounds of the present invention in a 0.1M potassium sodium phosphate buffer (pH 7.0) (100 μl) and a solution of prolyl endopeptidase extracted from rat brain in a 25 mM sodium phosphate buffer (100 μl) [123 unit/1, pH 6.8, containing 1 mM dithiothreitol and 0.5 mM EDTA, prepared by the method described in J. Neurochem., 35, 527 (1980)]was preincubated at 30° C. for 30 minutes. Thereto was added a 0.2 mM solution of 7-(N-succinyl-glycyl-prolyl)-4-methylcoumarinamide (Peptide Institute, INC.) in a 0.1M potassium sodium phosphate buffer (pH 7.0) (125 μl), and the mixture was incubated at 30° C. for 1 hour. The reaction mixture was immersed in ice (0° C.) to terminate the reaction, and the fluorescence (a1) was determined ten minutes later (excitation at 370 nm and emission at 440 nm). Concurrently, there were conducted the experiment wherein, in the above system, the prolyl endopeptidase solution was substituted for a 25 mM sodium phosphate buffer (pH 6.8, containing 1 mM dithiothreitol and 0.5 mM EDTA) and the experiment wherein the solution of the compounds of the present invention was substituted for a 0.1M potassium sodium phosphate buffer (pH 7.0). Each fluorescence (a2 and a3) was determined respectively [See Tanpakushitsu Kakusan Koso, 29, 127 (1984)]. The prolyl endopeptidase-inhibition rate was calculated by the following formula, and IC50, a concentration of a compound producing 50% inhibition, was estimated by semilogarithmic graph paper. [formula] […]

SMILES | inhibition rate, leucine aminopeptidase (leucine aminopeptidase; 0.1 μM) | inhibition at 0.1 µM (trypsin) | inhibition at 0.1 µM (elastase) | inhibition at 0.1 µM (chymotrypsin) | inhibition at 0.1 µM (cathepsin B) | inhibition at 0.1 µM (prolyl endopeptidase) | pIC50 (prolyl endopeptidase) | inhibition rate, leucine aminopeptidase (leucine aminopeptidase; 1 μM) | inhibition at 1 µM (trypsin) | inhibition at 1 µM (elastase) | inhibition at 1 µM (chymotrypsin) | inhibition at 1 µM (cathepsin B) | inhibition at 1 µM (prolyl endopeptidase)
COc1ccc(CNC(=O)N2CCC[C@H]2C(=O)N2CCC[C@H]2C(=O)C[S@+]([O-])c2ccc(OC)cc2)cc1 [Compound 24, (2S)-1-[N-(4-Methoxybenzylaminocarbonyl)-L-prolyl]-2-{[(S)-4-methoxyphenylsulfinyl]acetyl}pyrrolidine] | 0 | 0% | 0% | 0% | 0% | 99% | 9.30 | – | – | – | – | – | –
COc1ccc(CNC(=O)N2CCC[C@H]2C(=O)N2CCC[C@H]2C(=O)COc2ccc(OC)cc2)cc1 [Compound 25, (2S)-1-[N-(4-Methoxybenzylaminocarbonyl)-L-prolyl]-2-(4-methoxyphenoxyacetyl)pyrrolidine] | 0 | 0% | 0% | 0% | 0% | 97% | 8.60 | – | – | – | – | – | –
O=C(COc1ccc(Cl)cc1)[C@@H]1CCCN1C(=O)[C@@H]1CCCN1C(=O)CCc1ccccc1 [Compound 26, (2S)-2-(4-Chlorophenoxyacetyl)-1-[N-(3-phenylpropionyl)-L-prolyl]pyrrolidine] | – | – | – | – | – | – | 8.35 | 0 | 0% | 0% | 0% | 0% | 99%
O=C(COc1ccc(O)cc1)[C@@H]1CCCN1C(=O)[C@@H]1CCCN1C(=O)CCc1ccccc1 [Compound 27, (2S)-2-(4-Hydroxyphenoxyacetyl)-l-[N-(3-phenylpropionyl)-L-prolyl]pyrrolidine] | 0 | 0% | 0% | 0% | 0% | 96% | 8.60 | – | – | – | – | – | –
O=C(COc1ccc(Cl)cc1)[C@@H]1CCCN1C(=O)[C@@H]1CCCN1C(=O)NCc1ccc(Cl)cc1 [Compound 28, (2S)-1-[N-(4-Chlorobenzylaminocarbonyl)-L-prolyl]-2-(4-chlorophenoxyacetyl)pyrrolidine] | 0 | 0% | 0% | 0% | 0% | 97% | 7.82 | – | – | – | – | – | –
O=C(COc1ccc(F)cc1)[C@@H]1CCCN1C(=O)[C@@H]1CCCN1C(=O)NCc1ccc(F)cc1 [Compound 29, (2S)-1-[N-(4-Fluorobenzylaminocarbonyl)-L-prolyl]-2-(4-fluorophenoxyacetyl)pyrrolidine] | 0 | 0% | 0% | 0% | 0% | 99% | 10.00 | – | – | – | – | – | –
O=C(COc1ccccc1)[C@@H]1CCCN1C(=O)[C@@H]1CCCN1C(=O)NCc1ccc(Cl)cc1 [Compound 30, (2S)-1-[N-(4-Chlorobenzylaminocarbonyl)-L-prolyl]-2-(phenoxyacetyl)pyrrolidine] | 0 | 0% | 0% | 0% | 0% | 99% | 9.22 | – | – | – | – | – | –
CCCCCCCC(=O)N1CCC[C@H]1C(=O)N1CCC[C@H]1C(=O)COc1ccccc1 [Compound 31, (2S)-1-(N-Octanoyl-L-prolyl)-2-(phenoxyacetyl)pyrrolidine] | 0 | 0% | 0% | 0% | 0% | 97% | 8.35 | – | – | – | – | – | –
O=C(COCc1ccccc1)[C@@H]1CCCN1C(=O)[C@@H]1CCCN1C(=O)NCc1ccccc1 [Compound 32] | 0 | 0% | 0% | 0% | 0% | 96% | 9.00 | – | – | – | – | – | –
O=C(COc1ccccc1)[C@@H]1CCCN1C(=O)[C@@H]1CCCN1C(=O)COc1ccccc1 [Compound 46, (2S)-2-(Phenoxyacetyl)-1-[N-(phenoxyacetyl)-L-prolyl]pyrrolidine] | – | – | – | – | – | – | 7.22 | 0 | 0% | 0% | 0% | 0% | 93%
COc1ccc(OCC(=O)[C@@H]2CCCN2C(=O)[C@@H]2CCCN2C(=O)COc2ccccc2)cc1 [Compound 47, (2S)-2-(4-Methoxyphenoxyacetyl)-1-[N-(phenoxyacetyl)-L-prolyl]pyrrolidine] | – | – | – | – | – | – | 7.30 | 0 | 0% | 0% | 0% | 0% | 98%
COc1ccc(OCC(=O)[C@@H]2CCCN2C(=O)[C@@H]2CCCN2C(=O)CNc2ccccc2)cc1 [Compound 48, (2S)-2-(4-Methoxyphenoxyacetyl)-1-[N-(N-phenylglycyl)-L-prolyl]pyrrolidine] | – | – | – | – | – | – | 7.22 | 0 | 0% | 0% | 0% | 0% | 90%
